Assay results from patent US5366726A (priority 1992, dated 1994).
“And” between values parts separate entries of the source, which are not always exact repeats. Equal values may be shown once. Read-outs that look alike come from different tables or passages of the source.

Tests used:
[1] = Example 1: pentamidine concentrations in plasma and bronchoalveolar lavage fluid (HPLC); assay type: in vivo, human; details: for Plasma conc. on Day 1: peak during or end of inhalation, single patients
Procedure: For six inhalation patients (1, 4, 6, 7, 15, and 16) and five i.v. patients (2, 3, 5, 8, and 22), plasma samples were obtained at the completion of therapy and at 0.17, 0.5, 1, 1.5, 2, 2.5, 3, 4, 5, 6, 8, 10, 12, and 18 hours following initiation of therapy. For patients 9-14 and 17-21, trough and peak plasma samples were collected for the first three days, then weekly during therapy. Trough and peak samples were obtained on days 2, 3, 4, 5, 7, 11, and 13 for patient 2, days 2, 3, 4, 5, 7, and 12 for patient 3, days 2, 3, 4, 5, 13 and 18 for patient 5, and days 2, 3, 4, 5, and 11 for patient 8.

[2] = Example 2: aerosol particle size, Mercer cascade impactor; assay type: physicochemical
Excerpt: A compressed oxygen (5-7 L/min at 345 kPa, 50 psi) powered nebulizer produces the aerosol and one-way valves provide for entrainment of room air in patients whose minute ventilation is high, act as a baffle to decrease particle size, and direct expired air to a filter which removes the remaining particles of drug thereby preventing environmental contamination.
Particles were sized with a 7 stage Mercer cascade impactor (Intox Products, Albuquerque, N. Mex.). The gas supply was 6 L/min, the sample stream was not dried, and the impactor flow rates were 0.5 L/min. […] Results from the average of three determinations at each location were expressed as mass median aerodynamic diameter±geometric standard deviation (MMAD±GSD). Raabe, J Aerosol Sci (1971) 2:289-303.

[3] = Example 2: pentamidine in BAL supernatant, BAL sediment and serum (HPLC); assay type: in vivo, human
Excerpt: The patients were divided into two groups.

Pneumocystis carinii [4] = assay type: in vivo, human
[5] = Example 3: serum pentamidine concentrations; assay type: in vivo; details: human, inhaled or intranasal, 300 mg, serum pentamidine concentration at end of therapy, 2 patients
[6] = design: species or system human; details: in vivo
Excerpt: Chest radiographs and arterial blood gas tensions were obtained as clinically indicated.
Liver function SGOT or SGPT
Rash with fever or mucositis
Cough cough or bronchospasm un-

Pneumocystis carinii [7] = assay: Example 5: prevention of P. carinii pneumonia, 300 mg once per month; assay type: in vivo, human; details: single prior episode; vs 10 based on 132 historical controls, p<0.01
Excerpt: (§1) Within 30 days of initiation of prophylaxis, ten patients were omitted due to treatment (9) or relapse (1). Of the 93 patients, 48 had had at least one previous episode of PCP. Two-thirds of the patients were taking AZT at the onset and throughout the duration of the post-exposure prophylaxis. The median and maximum duration of treatment at the time of analysis was 3.1 and 5.2 months.

Pneumocystis carinii [8] = assay: Example 6: prevention of PCP, different dosages and regimens; assay type: in vivo, human; details: of 372, at least one treatment
Excerpt: A total of 438 participants were selected on the basis of seropositivity for HIV, and were stratified on the basis of (i) prior PCP (n=250), (ii) Kaposi's sarcoma (n=59) or (iii) ARC (n=129).

Pneumocystis carinii [9] = assay: Example 7: prevention of PCP, 300 mg twice per month vs 600 mg once per month; assay type: in vivo, human
Excerpt: (§2) Five patients who developed PCP within 28 days were not evaluated. One hundred (66%) of the patients were concurrently receiving AZT, and 42 (28%) had experienced one prior episode of PCP.

[10] = Example 8: adverse effects in the clinical trial; assay type: in vivo, human
Excerpt: Participants were enrolled in one of 13 treatment centers located in the San Francisco Bay area.
Each treatment was supervised by a respiratory therapist who noted any immediate adverse effects and administered a bronchodilator if needed for severe coughing or bronchospasm.
Participants were questioned at baseline and at each visit about concomitant medications, intercurrent illnesses, and symptoms. Information from participants, their physicians, hospital records, microbiology departments, and county health departments were used to determine status.

[11] = design: species or system human; details: in vivo; remark: listed apart in the source
Excerpt: as §1

[12] = design: species or system human; details: in vivo; remark: listed apart in the source
Excerpt: as §2

[13] = human, in vivo
[14] = Respirgard or UltraVent, any dose or duration
[15] = human, in vivo; remark: listed apart in the source
Pneumocystis carinii [16] = details: standard therapy, intravenous pentamidine or TMP-SMX
Excerpt: Adult patients having or suspected of having AIDS, and who were hospitalized for a fiberoptic bronchoscopy to evaluate diffuse infiltrates on chest radiographs, were studied. The patients were divided into two groups.

Pneumocystis carinii [17] = details: cited from earlier work; for Vital Capacity: percent predicted
[18] = parenteral pentamidine, TMP-SMX; cited from earlier work
[19] = inhaled, animals; cited from earlier work
[20] = Example 1: toxicity of inhaled vs intravenous pentamidine in patients; details: for major toxicity: neutropenia

Question: With `N=C(N)c1ccc(OCCCCCOc2ccc(C(=N)N)cc2)cc1` [pentamidine, p,p'-(pentamethylenedioxy)dibenzamidine] as the molecule, how does the Cmax ([1]; human, plasma, intravenous, 3 mg/Kg, read-out: mean peak plasma concentration during first infusion) read?
Answer: 260 ± 56 ng/mL

Question: What about the “plasma samples with no detectable drug” value ([1]; inhaled) of the same molecule?
Answer: approximately two-thirds

Question: What about the “lavage fluid concentration, inhalation vs iv-treated patients” value ([1]; inhaled vs intravenous) of the same molecule?
Answer: approximately 10 fold

Question: And the “Plasma conc. on Day 1” value ([1]; inhaled)?
Answer: 0.0 ng/mL

Question: And the “Plasma conc. on Day 1” value ([1]; inhaled, 1440 min)?
Answer: 3.1 ng/mL and 14.7 ng/mL and 16.9 ng/mL and 7.3 ng/mL and 32.8 ng/mL and 12.3 ng/mL and 2.5 ng/mL and 7.4 ng/mL and 7.8 ng/mL and 35.0 ng/mL and 30.9 ng/mL and 9.2 ng/mL

Question: What about the “maximum plasma concentration during remainder of therapy, single patients” value ([1]; intravenous, patient 3 day 5 (lowest), patient 19 day 14 (highest)) of the same molecule?
Answer: 164 ng/mL and 1360 ng/mL

Question: And the “mass of particles larger than 4 μm” value ([2]; at mouth-piece)?
Answer: less than 5%

Question: What about the “particle size MMAD” value ([2]; at mouth-piece (point B), ± GSD 1.88) of the same molecule?
Answer: 1.42±1.88 μm

Question: What about the “mass of particles larger than 4 μm” value ([2]; distal to nebulizer) of the same molecule?
Answer: greater than 20%

Question: And the “BAL sediment concentration, aerosol vs intravenous group” value ([3]; 18-24 h)?
Answer: 10-100 fold

Question: What about the “mean BAL supernatant (aerosol) vs sediment (intravenous) concentration, factor” value ([3]; 18-24 h) of the same molecule?
Answer: more than 2

Question: And the systemic absorption ([3]; after aerosol administration)?
Answer: Little or no systemic absorption

Question: What about the “dyspnea, respiratory rate and fever” value (Pneumocystis carinii [4]; all 13 patients treated successfully) of the same molecule?
Answer: marked reduction

Question: And the “patients who died of progressive respiratory failure” value (Pneumocystis carinii [4]; concomitant tuberculosis, changed to TMP-SMX day 7)?
Answer: One

Question: And the “clinical improvement during second week, patients” value (Pneumocystis carinii [4]; in vivo)?
Answer: 3 patients

Question: And the “clinical improvement in first week, patients” value (Pneumocystis carinii [4]; in vivo)?
Answer: Ten

Question: What about the “Successful Treatment w/ Change” value (Pneumocystis carinii [4]; n = 15) of the same molecule?
Answer: 14(93) n (%)

Question: What about the “Successful Treatment w/o Change” value (Pneumocystis carinii [4]; n = 15) of the same molecule?
Answer: 13(86) n (%)

Question: And the “worsened infiltrates at one week with subsequent improvement, patients” value (Pneumocystis carinii [4]; of 13)?
Answer: Five

Question: And the “worsened or no improvement for first two weeks, then improvement, patients” value (Pneumocystis carinii [4]; of 13)?
Answer: 4 patients

Question: And the “radiographic improvement beginning by second week, patients” value (Pneumocystis carinii [4]; of 13 patients treated successfully)?
Answer: 4

Question: What about the average hospital stay (Pneumocystis carinii [4]; patients treated successfully) of the same molecule?
Answer: 8 days

Question: And the concentration at 504 h [5]?
Answer: 22 ng/mL

Question: What about the severe adverse reactions [6] of the same molecule?
Answer: No patient developed any severe adverse reactions

Question: What about the “number of observed cases” value (Pneumocystis carinii [7]) of the same molecule?
Answer: 3 cases

Question: And the “participants who experienced relapse” value (Pneumocystis carinii [8])?
Answer: 17

Question: And the “attack rate at 6.38 months” value (Pneumocystis carinii [9]; 300 mg twice or 600 mg once per month, p<0.01 vs previous study)?
Answer: 3%

Question: And the “deaths associated with PCP” value (Pneumocystis carinii [9]; 3 deaths)?
Answer: 2%

Question: What about the “deaths due to other causes” value (Pneumocystis carinii [9]; 9 deaths) of the same molecule?
Answer: 6%

Question: And the “evaluable patients who died” value (Pneumocystis carinii [9]; 12 of 146)?
Answer: 8%

Question: What about the “Pneumothorax, Known etiology” value ([10]; 30 mg) of the same molecule?
Answer: 5

Question: What about the “Pneumothorax, Spontaneous” value ([10]; 30 mg) of the same molecule?
Answer: 2

Question: What about the “Significant Cough” value ([10]; 30 mg) of the same molecule?
Answer: 31%

Question: And the “Treatments stopped due to cough” value ([10]; 30 mg)?
Answer: 0%

Question: What about the “Used Bronchodilators” value ([10]; 30 mg) of the same molecule?
Answer: 7.5%

Question: What about the “Withdrew, Adverse Effects” value ([10]; 30 mg) of the same molecule?
Answer: 2

Question: What about the “Pneumothorax, Known etiology” value ([10]; 150 mg) of the same molecule?
Answer: 5

Question: And the “Pneumothorax, Spontaneous” value ([10]; 150 mg)?
Answer: 3

Question: What about the “Significant Cough” value ([10]; 150 mg) of the same molecule?
Answer: 40%

Question: And the “Treatments stopped due to cough” value ([10]; 150 mg)?
Answer: 0.2%

Question: What about the “Used Bronchodilators” value ([10]; 150 mg) of the same molecule?
Answer: 14%

Question: What about the “Withdrew, Adverse Effects” value ([10]; 150 mg) of the same molecule?
Answer: 11

Question: And the “Pneumothorax, Known etiology” value ([10]; 300 mg)?
Answer: 3

Question: What about the “Pneumothorax, Spontaneous” value ([10]; 300 mg) of the same molecule?
Answer: 3

Question: And the “Significant Cough” value ([10]; 300 mg)?
Answer: 38%

Question: What about the “Treatments stopped due to cough” value ([10]; 300 mg) of the same molecule?
Answer: 0.7%

Question: And the “Used Bronchodilators” value ([10]; 300 mg)?
Answer: 20%

Question: And the “Withdrew, Adverse Effects” value ([10]; 300 mg)?
Answer: 10

Question: What about the “significant coughing during a treatment” value ([10]; all participants) of the same molecule?
Answer: 36%

Question: And the “wheezing during a treatment” value ([10]; all participants)?
Answer: 11%

Question: What about the “participants who used bronchodilators during treatment” value ([10]; human, in vivo) of the same molecule?
Answer: Fourteen

Question: What about the “rash, participants” value ([10]; human, in vivo) of the same molecule?
Answer: One

Question: And the spontaneous pneumothorax ([10]; human, in vivo)?
Answer: Eight

Question: What about the “stopped due to interstitial pneumonitis, participants” value ([10]; human, in vivo) of the same molecule?
Answer: One

Question: What about the “treatments ended by cough” value ([10]; human, in vivo) of the same molecule?
Answer: 0.3%

Question: And the “treatments interrupted by cough” value ([10]; human, in vivo)?
Answer: 0.5%

Question: And the “withdrew after pneumothoraces, participants” value ([10]; human, in vivo)?
Answer: four

Question: What about the major pentamidine-related toxicity [11] of the same molecule?
Answer: No major pentamidine-related toxicity

Question: And the “prophylaxis discontinued due to bronchospasm, patients” value [12]?
Answer: one

Question: What about the “airway mucosal damage at repeat bronchoscopy” value [13] of the same molecule?
Answer: has not revealed evidence of airway mucosal damage

Question: And the hypotension or dysglycemia [13]?
Answer: no episodes of hypotension or dysglycemia

Question: And the “mild inhalation-associated cough, patients” value [13]?
Answer: Eight of thirteen

Question: And the “mucosal damage at repeat bronchoscopy” value [13]?
Answer: evidence of mucosal damage has not been observed

Question: What about the “pentamidine-related reactions in some patients” value [13] of the same molecule?
Answer: cough, bronchospasm, or temperature elevation

Question: What about the “reversible bronchospasm, patients” value [13] of the same molecule?
Answer: five

Question: And the “signs or symptoms of bronchitis or bronchospasm between inhalations” value [13]?
Answer: not present

Question: And the “dose remaining in the nebulizer after inhalation” value [14]?
Answer: approximately one third

Question: And the “only frequent adverse effect observed clinically” value [15]?
Answer: transient airway irritation

Question: What about the “response of all patients infected with P. carinii” value (Pneumocystis carinii [16]) of the same molecule?
Answer: responded to standard therapy

Question: And the PaO2 (Pneumocystis carinii [17]; post therapy, TMP-DPS only 8 patients tested)?
Answer: 87.2 torr

Question: What about the DLCO (Pneumocystis carinii [17]; post therapy) of the same molecule?
Answer: 62

Question: And the “Vital Capacity” value (Pneumocystis carinii [17]; post therapy)?
Answer: 80

Question: And the DLCO (Pneumocystis carinii [17]; pre therapy)?
Answer: 59.0

Question: What about the PaO2 (Pneumocystis carinii [17]; pre therapy) of the same molecule?
Answer: 69.3 torr

Question: What about the “Vital Capacity” value (Pneumocystis carinii [17]; pre therapy) of the same molecule?
Answer: 70

Question: What about the “rate of severe reactions” value [18] of the same molecule?
Answer: 50%

Question: And the microscopic airway changes [19]?
Answer: no microscopic airway changes

Question: What about the “minor toxicity (rash), patients” value ([20]; inhaled) of the same molecule?
Answer: One

Question: And the major toxicity ([20]; inhaled, patients also received AZT)?
Answer: 20%

Question: What about the “minor toxicity (elevated serum creatinine, depressed leukocyte count), patients” value ([20]; intravenous) of the same molecule?
Answer: four

Question: What about the “required a change of therapy due to toxicity” value ([20]; intravenous) of the same molecule?
Answer: 11%

Question: And the major toxicity ([20]; intravenous, hepatotoxicity)?
Answer: 22%
